# In US12441768B2, “Compositions and methods for treating endometriosis” (EndoMet Biosciences, Inc., priority 2018, dated 2025):
# Where a SMILES comes first, the peptide text is derived from it.
# Key:
# β-catenin = target: T1, β-catenin (Homo sapiens, UniProt P35222); experiment: KD50 measurement using competitive fluorescence polarization (FP) with labelled TCF4; assay type: binding; details: fluorescence polarization, β-catenin; for Kd: read-out: β-Cat FP KD
# T1 sequence (P35222 1-781): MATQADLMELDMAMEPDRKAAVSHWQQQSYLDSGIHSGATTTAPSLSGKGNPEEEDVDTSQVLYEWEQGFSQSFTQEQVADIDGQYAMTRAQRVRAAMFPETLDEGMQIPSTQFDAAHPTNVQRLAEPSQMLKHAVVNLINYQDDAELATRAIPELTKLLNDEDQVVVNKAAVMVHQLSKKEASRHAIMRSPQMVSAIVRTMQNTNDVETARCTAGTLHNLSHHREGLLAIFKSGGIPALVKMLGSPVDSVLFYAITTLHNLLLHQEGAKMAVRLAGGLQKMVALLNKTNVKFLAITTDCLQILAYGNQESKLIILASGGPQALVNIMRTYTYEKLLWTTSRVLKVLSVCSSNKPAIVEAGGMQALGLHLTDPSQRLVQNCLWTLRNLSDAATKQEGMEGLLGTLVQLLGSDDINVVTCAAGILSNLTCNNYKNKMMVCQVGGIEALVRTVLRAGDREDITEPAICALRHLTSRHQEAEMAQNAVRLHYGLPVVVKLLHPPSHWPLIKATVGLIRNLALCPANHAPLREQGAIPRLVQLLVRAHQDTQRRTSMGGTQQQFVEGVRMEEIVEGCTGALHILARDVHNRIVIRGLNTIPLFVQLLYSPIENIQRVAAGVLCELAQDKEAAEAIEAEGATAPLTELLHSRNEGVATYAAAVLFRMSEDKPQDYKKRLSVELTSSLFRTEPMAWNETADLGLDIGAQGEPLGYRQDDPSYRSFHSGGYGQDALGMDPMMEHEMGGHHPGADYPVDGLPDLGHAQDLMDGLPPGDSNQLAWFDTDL
# Summary of the method: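 Tracer: labelled TCF4, 5 nM; protein 100 nM; RT incubation. Competitor dilution series 10 nM–30 uM. FP read ex 470 / em 520 nm. n = 3.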
# [1] = % Viability non-Wnt responsive cells
# [2] = target: Wnt-responsive promoter (TCF/LEF); experiment: Wnt-dependent luciferase reporter assay; assay type: cell-based, murine
# Summary of the method: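 EC50 (uM) derived from inhibition of luminescence in Wnt3a-stimulated murine 3T3 cells expressing luciferase under a TCF/LEF promoter, with peptides added across a concentration range and vehicle as control.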
SMILES,β-Cat FP Hill slope (β-catenin),Kd (β-catenin) [µM],viability [1] [%],EC50 [2] [µM]
CC[C@H](C)[C@H](NC(=O)[C@H](CC(C)C)NC(=O)[C@H](Cc1ccccc1)NC(=O)[C@@H](N)Cc1c[nH]c2ccccc12)C(=O)N[C@@H](CO)C(=O)N[C@@H](Cc1ccc(O)cc1)C(=O)N[C@@H](Cc1c[nH]c2ccccc12)C(=O)O [compound 109] (H-WFLISYW-OH),3,1 to 10,103,7.5 to 15
CC[C@H](C)[C@H](NC(=O)[C@H](CC(C)C)NC(=O)[C@H](Cc1ccccc1)NC(=O)[C@@H](N)Cc1c[nH]c2ccccc12)C(=O)N[C@@H](CO)C(=O)N[C@@H](Cc1ccccc1)C(=O)N[C@@H](Cc1c[nH]c2ccccc12)C(=O)O [compound 110] (H-WFLISFW-OH),3,1 to 10,103,7.5 to 15
CC[C@H](C)[C@H](NC(=O)[C@H](CC(C)C)NC(=O)[C@H](Cc1ccccc1)NC(=O)[C@H](Cc1c[nH]c2ccccc12)NC)C(=O)N[C@@H](CO)C(=O)N[C@@H](Cc1ccccc1)C(=O)N[C@@H](Cc1c[nH]c2ccccc12)C(=O)O [compound 111] (HELM PEPTIDE1{[meW].F.L.I.S.F.W}$$$$V2.0),2.06,0.4 to 1,99.8,7.5 to 15
CC[C@H](C)[C@H](NC(=O)[C@H](CC(C)C)NC(=O)[C@H](Cc1ccccc1)NC(=O)[C@H](Cc1c[nH]c2ccccc12)NC(=O)[C@@H](N)CCSC)C(=O)N[C@@H](CO)C(=O)N[C@@H](Cc1ccccc1)C(=O)N[C@@H](Cc1c[nH]c2ccccc12)C(=O)O [compound 112] (H-MWFLISFW-OH),1.82,0.4 to 1,103,< 7.5
CC[C@H](C)[C@H](NC(=O)[C@H](CC(C)C)NC(=O)[C@@H](NC(=O)[C@H](Cc1c[nH]c2ccccc12)NC(=O)[C@H](CCSC)NC(=O)[C@@H](N)CCCCN)[C@@H](C)CC)C(=O)N[C@@H](CS)C(=O)N[C@@H](Cc1ccccc1)C(=O)N[C@@H](Cc1c[nH]c2ccccc12)C(=O)NCC(=O)O [compound 113] (H-KMWILICFWG-OH),0.7,1 to 10,102,> 30
CC[C@H](C)[C@H](NC(=O)[C@H](CC(C)C)NC(=O)[C@@H](NC(=O)[C@H](Cc1c[nH]c2ccccc12)NC(=O)[C@H](CCSC)NC(=O)[C@@H](N)Cc1c[nH]cn1)[C@@H](C)CC)C(=O)N[C@@H](CS)C(=O)N[C@@H](Cc1ccccc1)C(=O)N[C@@H](Cc1c[nH]c2ccccc12)C(=O)NCC(=O)O [compound 114] (H-HMWILICFWG-OH),0.7,1 to 10,123,< 7.5
CC[C@H](C)[C@H](NC(=O)[C@H](CC(C)C)NC(=O)[C@@H](NC(=O)[C@H](Cc1c[nH]c2ccccc12)NC(=O)[C@H](CCSC)NC(=O)[C@@H](N)CCCNC(=N)N)[C@@H](C)CC)C(=O)N[C@@H](CS)C(=O)N[C@@H](Cc1ccccc1)C(=O)N[C@@H](Cc1c[nH]c2ccccc12)C(=O)NCC(=O)O [compound 115] (H-RMWILICFWG-OH),0.7,1 to 10,116,15 to 22.5
CC[C@H](C)[C@H](NC(=O)[C@H](CC(C)C)NC(=O)[C@@H](NC(=O)[C@H](Cc1c[nH]c2ccccc12)NC(=O)[C@@H](N)CCSC)[C@@H](C)CC)C(=O)N[C@@H](CS)C(=O)N[C@@H](Cc1ccccc1)C(=O)N[C@@H](Cc1c[nH]c2ccccc12)C(=O)NCC(=O)O [compound 116] (H-MWILICFWG-OH),0.72,0.4 to 1,123,< 7.5
CC[C@H](C)[C@H](NC(=O)[C@H](CC(C)C)NC(=O)[C@@H](NC(=O)[C@H](Cc1c[nH]c2ccccc12)NC(=O)[C@@H](N)CCCCN)[C@@H](C)CC)C(=O)N[C@@H](CS)C(=O)N[C@@H](Cc1ccccc1)C(=O)N[C@@H](Cc1c[nH]c2ccccc12)C(=O)NCC(=O)O [compound 117] (H-KWILICFWG-OH),,> 30,138,15 to 22.5
CC[C@H](C)[C@H](NC(=O)[C@H](CC(C)C)NC(=O)[C@@H](NC(=O)[C@H](Cc1c[nH]c2ccccc12)NC(=O)[C@@H](N)Cc1c[nH]cn1)[C@@H](C)CC)C(=O)N[C@@H](CS)C(=O)N[C@@H](Cc1ccccc1)C(=O)N[C@@H](Cc1c[nH]c2ccccc12)C(=O)NCC(=O)O [compound 118] (H-HWILICFWG-OH),,> 30,99.9,< 7.5
CC[C@H](C)[C@H](NC(=O)[C@H](CC(C)C)NC(=O)[C@@H](NC(=O)[C@H](Cc1c[nH]c2ccccc12)NC(=O)[C@@H](N)CCCNC(=N)N)[C@@H](C)CC)C(=O)N[C@@H](CS)C(=O)N[C@@H](Cc1ccccc1)C(=O)N[C@@H](Cc1c[nH]c2ccccc12)C(=O)NCC(=O)O [compound 119] (H-RWILICFWG-OH),0.7,1 to 10,143,7.5 to 15
"CC[C@H](C)[C@@H]1NC(=O)[C@H](CC(C)C)NC(=O)[C@H]([C@@H](C)CC)NC(=O)[C@H](Cc2c[nH]c3ccccc23)NC(=O)[C@@H](N)CCCCNC(=O)C[C@@H](C(=O)O)NC(=O)[C@H](Cc2c[nH]c3ccccc23)NC(=O)[C@H](Cc2ccccc2)NC(=O)[C@H](CS)NC1=O [compound 120] (HELM PEPTIDE1{K.W.I.L.I.C.F.W.D}$PEPTIDE1,PEPTIDE1,1:R3-9:R3$$$V2.0)",,> 30,123,< 7.5
CC[C@H](C)[C@H](NC(=O)[C@H](Cc1c[nH]c2ccccc12)NC(=O)[C@@H](N)CCSC)C(=O)N[C@@H](CC(C)C)C(=O)N[C@H](C(=O)N[C@@H](CS)C(=O)NC(C)(Cc1ccccc1)C(=O)N[C@@H](Cc1c[nH]c2ccccc12)C(=O)NCC(=O)O)[C@@H](C)CC (some centres unmarked) [compound 121] (HELM PEPTIDE1{M.W.I.L.I.C.[CC(Cc1ccccc1)(N[*:1])C(=O)[*:2]].W.G}$$$$V2.0),0.74,< 0.4,150,< 7.5
CC[C@H](C)[C@H](NC(=O)[C@H](CC(C)C)NC(=O)[C@@H](NC(=O)[C@H](Cc1c[nH]c2ccccc12)NC(=O)[C@H](CCSC)NC(=O)[C@@H](N)CCCCN)[C@@H](C)CC)C(=O)N[C@@H](CO)C(=O)N[C@@H](Cc1ccccc1)C(=O)N[C@@H](Cc1c[nH]c2ccccc12)C(=O)NCC(=O)O [compound 122] (H-KMWILISFWG-OH),1.55,< 0.4,113,22.5 to 30
CC[C@H](C)[C@H](NC(=O)[C@H](CC(C)C)NC(=O)[C@@H](NC(=O)[C@H](Cc1c[nH]c2ccccc12)NC(=O)[C@H](CCSC)NC(=O)[C@@H](N)Cc1c[nH]cn1)[C@@H](C)CC)C(=O)N[C@@H](CO)C(=O)N[C@@H](Cc1ccccc1)C(=O)N[C@@H](Cc1c[nH]c2ccccc12)C(=O)NCC(=O)O [compound 123] (H-HMWILISFWG-OH),1.07,< 0.4,107,< 7.5
CC[C@H](C)[C@H](NC(=O)[C@H](CC(C)C)NC(=O)[C@@H](NC(=O)[C@H](Cc1c[nH]c2ccccc12)NC(=O)[C@H](CCSC)NC(=O)[C@@H](N)CCCNC(=N)N)[C@@H](C)CC)C(=O)N[C@@H](CO)C(=O)N[C@@H](Cc1ccccc1)C(=O)N[C@@H](Cc1c[nH]c2ccccc12)C(=O)NCC(=O)O [compound 124] (H-RMWILISFWG-OH),,> 30,102,7.5 to 15
CC[C@H](C)[C@H](NC(=O)[C@H](CC(C)C)NC(=O)[C@@H](NC(=O)[C@H](Cc1c[nH]c2ccccc12)NC(=O)[C@@H](N)CCCCN)[C@@H](C)CC)C(=O)N[C@@H](CO)C(=O)N[C@@H](Cc1ccccc1)C(=O)N[C@@H](Cc1c[nH]c2ccccc12)C(=O)NCC(=O)O [compound 125] (H-KWILISFWG-OH),0.7,0.4 to 1,113,22.5 to 30
CC[C@H](C)[C@H](NC(=O)[C@H](CC(C)C)NC(=O)[C@@H](NC(=O)[C@H](Cc1c[nH]c2ccccc12)NC(=O)[C@@H](N)Cc1c[nH]cn1)[C@@H](C)CC)C(=O)N[C@@H](CO)C(=O)N[C@@H](Cc1ccccc1)C(=O)N[C@@H](Cc1c[nH]c2ccccc12)C(=O)NCC(=O)O [compound 126] (H-HWILISFWG-OH),0.99,< 0.4,111,< 7.5
